Entries after “also recorded” stand apart in the source; their conditions may differ.
Experiments:
[1] = target: T1, FAK (Homo sapiens, UniProt Q05397); experiment: FAK activation (FAK-Tyr-397 phosphorylation) by western blotting in Caco-2 cells in suspension; assay type: cell-based
T1 construct: endogenous in cells; host or cells: Caco-2
Excerpt: FAK-Y397 western blotting: For studies of FAK activation, cells were maintained at ambient or increased pressure in bacteriologic plastic dishes pacificated with heat-inactivated bovine serum albumin to prevent adhesion and avoid adhesion-associated background FAK activation. Cells were lysed in lysis buffer, resolved by 10% SDS-PAGE, transferred to nitrocellulose and blotted with antibody to Tyr-397-phosphorylated FAK (Rabbit monoclonal antibody, ab81298, Abcam, USA) and anti-rabbit 680 (LI-COR, USA), before quantitation using Kodak Scientific Imaging Systems 1D, V.3.5.4 within the linear range of exposure (Oncotarget 2017). Total FAK (Primary antibody: Anti-FAK, clone 4.47 Merck, Germany and secondary antibody: anti-mouse 800, LI-COR, USA) served as a protein loading control.

[2] = system: Caco-2 monolayers; experiment: Closure of circular wounds in Caco-2 monolayers on collagen I; assay type: cell-based, human; details: for monolayer wound closure: Caco-2 on collagen I; for stimulation of wound closure under FAK blockade: with FAK inhibitor PF-573328 (10 uM)
[3] = system: Caco-2 cells; experiment: Caco-2 proliferation; assay type: cell-based, human
[4] = target: T2, SHP2 (Homo sapiens, UniProt Q06124); experiment: SHP2 dephosphorylation of a synthetic substrate; assay type: biochemical
T2 sequence (Q06124 1-593): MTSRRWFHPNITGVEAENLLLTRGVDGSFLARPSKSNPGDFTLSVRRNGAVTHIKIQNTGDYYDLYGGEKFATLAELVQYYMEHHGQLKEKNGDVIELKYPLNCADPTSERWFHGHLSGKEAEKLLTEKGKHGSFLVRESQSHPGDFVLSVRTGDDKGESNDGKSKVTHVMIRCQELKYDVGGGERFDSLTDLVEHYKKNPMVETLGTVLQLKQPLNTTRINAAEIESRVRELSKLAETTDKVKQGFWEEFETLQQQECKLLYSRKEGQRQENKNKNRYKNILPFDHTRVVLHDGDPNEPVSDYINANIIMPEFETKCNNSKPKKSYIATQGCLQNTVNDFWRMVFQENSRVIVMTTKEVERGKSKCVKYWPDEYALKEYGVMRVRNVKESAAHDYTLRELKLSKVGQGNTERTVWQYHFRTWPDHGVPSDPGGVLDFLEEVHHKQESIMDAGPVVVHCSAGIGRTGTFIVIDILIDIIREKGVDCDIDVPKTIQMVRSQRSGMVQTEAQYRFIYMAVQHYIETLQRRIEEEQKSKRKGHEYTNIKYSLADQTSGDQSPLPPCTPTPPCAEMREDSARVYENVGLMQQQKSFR

[5] = target: T3, PTP1B-FAK interaction (Homo sapiens, UniProt Q05397); experiment: PTP1B-FAK interaction by FAK immunoprecipitation and Western for PTP1B; assay type: cell-based; details: 10 nM; co-precipitation; listed as D3
T3 construct: endogenous in cells; host or cells: Caco-2 (inferred)
T3 sequence (Q05397 whole entry): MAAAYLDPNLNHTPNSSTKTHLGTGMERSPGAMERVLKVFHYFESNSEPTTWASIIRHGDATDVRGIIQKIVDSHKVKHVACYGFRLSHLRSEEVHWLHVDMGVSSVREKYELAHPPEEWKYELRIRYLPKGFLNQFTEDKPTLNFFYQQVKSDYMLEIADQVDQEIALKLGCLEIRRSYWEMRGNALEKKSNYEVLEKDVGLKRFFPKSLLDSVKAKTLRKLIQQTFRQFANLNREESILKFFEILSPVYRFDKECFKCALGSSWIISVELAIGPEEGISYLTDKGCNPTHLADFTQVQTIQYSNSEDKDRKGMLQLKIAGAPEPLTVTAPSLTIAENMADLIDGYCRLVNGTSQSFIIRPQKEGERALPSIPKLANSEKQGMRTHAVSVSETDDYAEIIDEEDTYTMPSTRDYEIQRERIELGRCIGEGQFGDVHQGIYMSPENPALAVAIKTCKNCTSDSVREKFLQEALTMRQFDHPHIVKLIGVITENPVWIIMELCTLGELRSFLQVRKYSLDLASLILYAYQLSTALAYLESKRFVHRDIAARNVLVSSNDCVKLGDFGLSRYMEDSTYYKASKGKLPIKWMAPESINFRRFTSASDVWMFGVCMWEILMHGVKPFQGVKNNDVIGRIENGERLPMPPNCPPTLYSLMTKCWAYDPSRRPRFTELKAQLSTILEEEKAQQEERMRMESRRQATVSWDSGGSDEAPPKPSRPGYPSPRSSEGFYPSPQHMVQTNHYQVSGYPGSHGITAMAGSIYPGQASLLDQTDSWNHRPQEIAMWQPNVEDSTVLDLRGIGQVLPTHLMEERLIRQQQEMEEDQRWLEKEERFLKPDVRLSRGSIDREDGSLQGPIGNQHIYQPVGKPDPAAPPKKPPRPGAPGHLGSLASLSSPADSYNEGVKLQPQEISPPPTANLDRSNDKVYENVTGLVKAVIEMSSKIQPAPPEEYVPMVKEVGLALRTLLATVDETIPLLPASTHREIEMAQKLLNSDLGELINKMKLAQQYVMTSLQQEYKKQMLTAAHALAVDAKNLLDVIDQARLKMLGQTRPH

[6] = target: T4, Pyk2 (also called FAK2) (Homo sapiens, UniProt Q14289); experiment: Pyk2 activation (selectivity); assay type: cell-based; details: up to 1000 nm (100× therapeutic threshold); listed as D3
T4 construct: endogenous in cells
T4 sequence (Q14289 whole entry): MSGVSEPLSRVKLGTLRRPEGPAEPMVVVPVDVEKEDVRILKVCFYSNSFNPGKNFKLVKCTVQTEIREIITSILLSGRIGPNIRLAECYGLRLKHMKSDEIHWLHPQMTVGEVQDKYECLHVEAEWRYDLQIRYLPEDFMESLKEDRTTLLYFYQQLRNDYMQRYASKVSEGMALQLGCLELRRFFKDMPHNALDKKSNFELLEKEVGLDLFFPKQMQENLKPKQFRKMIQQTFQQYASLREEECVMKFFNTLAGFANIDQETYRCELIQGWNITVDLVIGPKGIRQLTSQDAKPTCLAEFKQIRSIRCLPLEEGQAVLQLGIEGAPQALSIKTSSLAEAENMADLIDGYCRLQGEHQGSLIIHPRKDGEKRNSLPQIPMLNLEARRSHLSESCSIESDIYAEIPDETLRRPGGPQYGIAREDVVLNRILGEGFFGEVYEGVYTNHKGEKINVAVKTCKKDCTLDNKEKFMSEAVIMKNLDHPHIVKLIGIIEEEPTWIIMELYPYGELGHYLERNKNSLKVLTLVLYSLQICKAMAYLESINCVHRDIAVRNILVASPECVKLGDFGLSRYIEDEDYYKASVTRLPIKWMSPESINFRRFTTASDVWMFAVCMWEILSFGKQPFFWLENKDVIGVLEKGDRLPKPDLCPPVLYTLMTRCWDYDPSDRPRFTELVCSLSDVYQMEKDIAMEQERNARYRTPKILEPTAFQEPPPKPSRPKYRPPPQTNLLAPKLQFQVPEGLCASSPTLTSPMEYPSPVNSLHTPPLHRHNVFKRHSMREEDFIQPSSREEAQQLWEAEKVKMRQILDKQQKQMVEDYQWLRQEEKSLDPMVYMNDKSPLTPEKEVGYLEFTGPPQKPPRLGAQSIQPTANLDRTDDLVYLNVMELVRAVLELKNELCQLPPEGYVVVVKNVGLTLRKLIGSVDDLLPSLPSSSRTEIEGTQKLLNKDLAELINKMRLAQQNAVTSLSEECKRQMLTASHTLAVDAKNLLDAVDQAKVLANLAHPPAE

[7] = target: T5, Src (Homo sapiens, UniProt P12931); experiment: Src activation (selectivity); assay type: cell-based; details: up to 1000 nm (100× therapeutic threshold); listed as D3
T5 construct: endogenous in cells
T5 sequence (P12931 whole entry): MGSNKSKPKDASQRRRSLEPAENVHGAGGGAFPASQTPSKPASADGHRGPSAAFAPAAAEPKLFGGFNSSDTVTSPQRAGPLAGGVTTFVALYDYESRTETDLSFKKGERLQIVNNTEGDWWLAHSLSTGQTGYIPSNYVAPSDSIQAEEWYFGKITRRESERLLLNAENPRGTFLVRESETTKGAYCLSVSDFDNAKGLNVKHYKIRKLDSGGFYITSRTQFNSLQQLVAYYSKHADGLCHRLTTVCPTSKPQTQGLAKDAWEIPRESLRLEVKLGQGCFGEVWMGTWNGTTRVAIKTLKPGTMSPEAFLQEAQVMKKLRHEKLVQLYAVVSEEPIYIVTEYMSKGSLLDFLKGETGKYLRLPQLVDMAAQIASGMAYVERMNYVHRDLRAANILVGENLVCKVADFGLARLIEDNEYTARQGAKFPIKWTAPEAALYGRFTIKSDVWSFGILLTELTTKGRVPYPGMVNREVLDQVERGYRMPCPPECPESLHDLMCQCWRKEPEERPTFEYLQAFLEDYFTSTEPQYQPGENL

[8] = system: ileal ulcer; experiment: Serosal acetic acid ileal ulcer healing in mice; assay type: in vivo; details: vs DMSO vehicle, listed as D3
Protocol: An in vivo study was conducted utilizing C57BL6 Male/Female>8-week-old mice. During laparotomy under anesthesia, a filter paper soaked with 75% Acetic Acid was applied to ileal serosa for 15 seconds, a technique that produces reproducible mucosal ulcers at day 4 without opening the bowel. Flanigan T L et al., Am J Surg. 2008 November; 196(5): 683-689. doi:10.1016/j.amjsurg.2008.07.016.
At 1 day after ulcerogenesis, an intraperitoneal (IP) administration of Q6H-DMSO (2.4 ul+97.6 ul saline) was performed in a control sample, along with an IP injection of Q6H—Compound 3 (10 ug/ul) (2.4 ul+97.6 ul saline) in a test sample.
At 4 days after ulcerogenesis (day 3 after starting administration), the ulcer area was measured in each. The observed ulcer area and corresponding wound closure rate in vivo further evidences the effect of Compound 3.
(§1) (A) The effects of dosing of compound D3 on murine intestinal ulcer healing was investigated. Brief serosal application of a filter paper disk soaked in dilute acetic acid was used to create well demarcated reproducible mucosal small bowel ulcerations without opening the bowel (47-49). In one study such murine ulcers were created, allowed 24 hours for recovery and ulcer formation, and then compound D3 was administered at 900 ug/kg Q6H for three days before sacrifice. […] Males and females responded similarly.

[9] = system: small bowel ulcer; experiment: Indomethacin small bowel ulcer healing in mice; assay type: in vivo; details: 4 days after indomethacin 15 mg/kg subQ, listed as D3
Protocol: (§2) (B) Indomethacin ulcer healing. 15 mg/kg of indomethacin was administered subcutaneously, and treatment started with vehicle of drug 1 day after injury. At 4 days, ulcer area was calculated after sacrifice by morphometric analysis of photographs of the entire small bowel.

[10] = Toxicity assessment in acetic acid ulcer mice (weight, serum chemistry, histology); assay type: in vivo; details: acetic acid ulcer model
Protocol: as §1

[11] = Body weight in indomethacin ulcer mice; assay type: in vivo; details: indomethacin model, trend not statistically significant
Protocol: as §2

T1 sequence (Q05397 whole entry): as the sequence (Q05397 whole entry) above

COc1ccc(C2CCCN2C(=O)Nc2cc(C(F)(F)F)ccc2N2CCOCC2)cc1 (stereo not shown) [Compound 3, 2-(4-methoxyphenyl)-N-[2-(morpholin-4-yl)-5-(trifluoromethyl)phenyl]pyrrolidine-1-carboxamide]
FAK activation ([1]; 10 pM to 1 nM): activation | FAK activation ([1]; 1 nM): demonstrated FAK activation | FAK activation (FAK-Tyr-397 phosphorylation) ([1]; 10 nM, Caco-2 cells, listed as D3): activating FAK; also recorded: activate FAK | FAK-Y-397 phosphorylation under PTP PEST inhibition ([1]; 10 nM, PTP LYP inhibitor 540217 (50 uM), listed as D3): does not prevent D3 induction of FAK-Y-397; also recorded: stimulates Caco-2 FAK-Y-397 phosphorylation independently of PTP PEST inhibition | FAK activation in presence of genistein ([1]; 100 ug/ml genistein, human Caco-2 cells, listed as D3): does not block D3 induction of FAK phosphorylation; also recorded: does not block D3 activation of FAK | FAK activation, dose dependence ([1]; 10-1000 nM): dose dependently activates FAK | specificity vs. Pyk2 ([1]; FAK activation at 10 nM vs. Pyk2): at least 100 × | basal FAK-Tyr-397 phosphorylation ([1]; ambient pressure, varying concentrations): increase basal FAK-Tyr-397 phosphorylation | FAK activation ([1]; concentration not given): especially potent | FAK autophosphorylation in presence of FAK inhibitor PF573228 ([1]; with PF573228): does not prevent Compound 3 from increasing FAK autophosphorylation | wound closure when proliferation is blocked ([2]; 10 nM, 4 mM OH-urea, listed as D3): stimulates wound closure even when proliferation is blocked; also recorded: accelerates closure of circular wounds | monolayer wound closure ([2]; 10 nM): Increased wound closure rates | monolayer wound closure ([2]; 10 nM, listed as D3): accelerate the closure of circular wounds | wound closure rate ([2]; 100 μM, Caco-2 on Collagen-I): Increased wound closure rates | stimulation of wound closure under FAK blockade [2]: prevents the stimulation of wound healing by Compound 3 | stimulation of wound closure under FAK blockade ([2]; listed as D3): prevented D3 stimulation of monolayer wound closure; also recorded: prevents D3 stimulation of wound closure | Caco-2 cell proliferation [3]: Neither Compound 1 nor Compound 3 stimulated Caco-2 cell proliferation | Caco-2 proliferation (cell number) ([3]; 48 hours, listed as D3): cell number did not increase; also recorded: does not stimulate Caco-2 proliferation | SHP2 dephosphorylation of a synthetic substrate ([4]; 100 nM, vs. positive control reaction): neither D3 nor D4 (100 nM) blocks SHP2 dephosphorylation | SHP2 activity in vitro ([4]; concentration not given, listed as D3): does not activate SHP2; also recorded: does not alter SHP2 activity | PTP1B-FAK interaction [5]: does not change FAK-PTPB association; also recorded: does not inhibit PTP1B-FAK interaction | Pyk2 activation [6]: does not activate Pyk2 or Src; also recorded: does not affect the kinase Pyk2 | Src activation [7]: does not activate Pyk2 or Src; also recorded: does not affect | % wound closure between day 1 and day 4 ([8]; 900 ug/kg IP every 6 hours): markedly higher; also recorded: stimulates ulcer healing | ileal ulcer area ([8]; day 4, 900 ug/kg IP every 6 hours for 3 days): substantially smaller ulcers; also recorded: reduces ileal ulcer area; also recorded: ulcers appear smaller | total small bowel ulcer area [9]: substantial and statistically significant reduction in ulcer area; also recorded: markedly decreases total small bowel ulcer area | ALT ([10]; remained within the normal range): slight elevation of ALT | Histological evaluation of kidneys or livers ([10]; vs vehicle): no differences | Serum creatinine ([10]; vs vehicle): not different | postoperative body weight ([10]; vs vehicle): did not display further weight loss | body weight [11]: lost less weight

Source: patent US12048703B2, “Use of small molecule FAK activators to promote mucosal healing” (Regents of the University of Minnesota, priority 2018, dated 2024)
